Read-outs that look alike come from different tables or passages of the source. No end group written: not given here.
Assays:
[1] = Plasma half-life in SD rats (ELISA); format: in vivo
Description: The assay was performed according to the manufacturer's instructions using an ELISA kit purchased from Genzyme. Serum samples were collected from the […] with heparinized 50 μL capillaries, and blood samples were collected at 1 min, 2 min, 3 min, 5 min, 10 min, 15 min, 20 min, 30 min, 45 min, 1 h, 2 h, 4 h, 6 h, 8 h after treatment. After standing for 2 h, the sample was centrifuged, and the obtained supernatant was stored at −20° C. for testing.

[2] = test system: DSS-induced acute colitis mouse; experiment: Dextran sulfate sodium-induced acute colitis mouse model; format: in vivo, Balb/c mice; conditions: for body weight change: DSS 2.5% 7 days, 400 μg/kg/d intraperitoneal, FIG. 5; for myeloperoxidase (MPO) activity in colon tissue: FIG. 9; for serum IFN-γ content / serum IL-6 content / serum IL-10 (anti-inflammatory factor) / serum IL-β content / serum TNF-α content: FIG. 10; for colonic lesions, HE staining: FIG. 11; for TNF-α expressed in colon tissue sections: FIG. 12; for colon length: day 7, FIG. 7
Description: The specific implementation steps are as follows: Balb/c mice 6-8 weeks old were randomly divided into 8 groups, each group containing 10 mice.
According to Table 2, the disease activity index (DAI) score was obtained. […] Seven days after the model was established, the mouse were sacrificed by cervical dislocation, and the entire colon and spleen were removed. […] The spleen weight was measured and the spleen index was calculated.

[3] = test system: OXZ-induced acute colitis mouse; experiment: Oxazolone-induced acute colitis mouse model; format: in vivo, Balb/c mice; conditions: for body weight change: 400 ug/kg/d i.p. 3 days, FIG. 13; for colon length: 3rd day after enema, FIG. 15; for MPO activity in colon tissue: FIG. 17; for serum IFN-γ level / serum IL-1β level / serum IL-6 level / serum IL-10 (anti-inflammatory factor) / serum TNF-α level: FIG. 18; for pathological changes in colon tissue, HE staining: FIG. 19; for expression of TNF-α in colon tissue sections: FIG. 20
Description: Establishment of an oxazolone-induced mouse colitis animal model: Male Balb/c mice, 6-8 weeks old, were randomly divided into 8 groups, each containing 10 mice. On the first day, the back skin of the mouse was shaved (1.5 cm×1.5 cm), and the normal group was coated with 0.15 mL of acetone/olive oil solution (acetone/olive oil volume ratio of 4:1). The model group and the SN10 group were negatively controlled. The drug and the positive control group were skin-coated with 0.15 mL of 3% (w/v) oxazolone (dissolved in acetone/olive oil solution) for skin pre-sensitization. On the 8th day, the mice were anesthetized by intraperitoneal injection of 4% chloral hydrate. The 3.51 catheter was slowly and gently inserted into the colon of the mouse about 4 cm from the anus. The normal group was injected with 0.1 mL of 50% ethanol, and the other groups were injected with […]. 1% (w/v) oxazolone (dissolved in 50% ethanol), slowly pull out the catheter, keep the mouse vertical, head down position for 60 s, so that the drug solution is fully left in the intestinal lumen. After enema, the normal group and the model group were given intraperitoneal injection of 0.1 mL of normal saline. […] The injection dose was 400 ug/kg/d, and the positive drug group was given 0.1 mL sulfasalazine and intravesical injection of infliximab (dissolved in normal saline) at doses of 400 mg/kg/d and 5 mg/respectively. Each kg/d was administered continuously for 3 days.
The body weight changes, stool characteristics and blood in the stool were observed and recorded daily after enema.
On the 3rd day after enema, the mice were sacrificed by cervical dislocation. The colon and spleen were removed immediately. The length of the colon was measured.
Part of the diseased colon tissue was excised and weighed. MPO) activity in mouse colon tissue was detected using a myeloperoxidase (MPO) assay kit (Nanjing Institute of Bioengineering). MPO is a functional marker and activation marker for neutrophils and is involved in many processes that regulate inflammatory responses. Excessive MPO activity catalyzes the reaction to produce excess oxidants, causing local oxidative stress and oxidative tissue damage.
The colon of the mouse were washed with saline, fixed in 10% formalin. Tissue sections were prepared and stained with HE.

[4] = biological target: T1, TNF-α (Homo sapiens, UniProt P01375); experiment: BIAcore (SPR) binding of Hydrostatin-SN10 to TNF-α
[5] = biological target: T2, TNF-α-TNFR1 binding (Homo sapiens, UniProt P19438); experiment: BIAcore (SPR) competitive inhibition of TNF-α-TNFR1 binding
T2 sequence (P19438 30-211 limits assumed): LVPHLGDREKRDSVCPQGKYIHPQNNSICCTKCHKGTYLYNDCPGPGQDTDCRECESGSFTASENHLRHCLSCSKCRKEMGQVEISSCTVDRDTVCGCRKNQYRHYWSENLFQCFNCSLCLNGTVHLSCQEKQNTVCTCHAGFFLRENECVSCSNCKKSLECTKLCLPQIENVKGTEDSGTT

[6] = biological target: T1, TNF-α; experiment: MST binding of Hydrostatin-SN10 to TNF-α; conditions: fluorescently labeled TNF-α
[7] = biological target: T3, TNFR2 (Homo sapiens, UniProt P20333); experiment: MST binding of Hydrostatin-SN10 to TNFR2
T3 sequence (P20333 23-461): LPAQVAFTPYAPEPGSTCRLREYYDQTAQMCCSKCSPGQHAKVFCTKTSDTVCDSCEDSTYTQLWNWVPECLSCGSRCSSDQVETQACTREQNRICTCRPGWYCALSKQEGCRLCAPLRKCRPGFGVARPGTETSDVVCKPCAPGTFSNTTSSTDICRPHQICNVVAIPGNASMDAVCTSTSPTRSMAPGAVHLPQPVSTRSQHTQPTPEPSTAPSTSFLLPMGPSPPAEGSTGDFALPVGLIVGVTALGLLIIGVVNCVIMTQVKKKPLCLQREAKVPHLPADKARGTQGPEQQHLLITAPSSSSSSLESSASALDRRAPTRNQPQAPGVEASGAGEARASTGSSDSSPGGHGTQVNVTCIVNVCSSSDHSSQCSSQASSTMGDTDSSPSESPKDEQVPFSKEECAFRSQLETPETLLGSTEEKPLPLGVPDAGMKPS

[8] = biological target: T4, TNFR1-TNF-α binding (Homo sapiens, UniProt P19438); experiment: MST competitive inhibition of TNFR1-TNF-α binding
T4 sequence (P19438 30-211 limits assumed): T2 sequence (P19438 30-211 limits assumed)
From the text: On-machine detection, software fitting to find the KD value. The changes of TNF-α saturation concentration, response amplitude and KD value before and after Hydrostatin-SN10 were compared.

[9] = Isoelectric point of Hydrostatin-SN10; format: physicochemical
[10] = biological target: T5, TNFR1 (Homo sapiens, UniProt P19438); experiment: biochemical
T5 sequence (P19438 30-455): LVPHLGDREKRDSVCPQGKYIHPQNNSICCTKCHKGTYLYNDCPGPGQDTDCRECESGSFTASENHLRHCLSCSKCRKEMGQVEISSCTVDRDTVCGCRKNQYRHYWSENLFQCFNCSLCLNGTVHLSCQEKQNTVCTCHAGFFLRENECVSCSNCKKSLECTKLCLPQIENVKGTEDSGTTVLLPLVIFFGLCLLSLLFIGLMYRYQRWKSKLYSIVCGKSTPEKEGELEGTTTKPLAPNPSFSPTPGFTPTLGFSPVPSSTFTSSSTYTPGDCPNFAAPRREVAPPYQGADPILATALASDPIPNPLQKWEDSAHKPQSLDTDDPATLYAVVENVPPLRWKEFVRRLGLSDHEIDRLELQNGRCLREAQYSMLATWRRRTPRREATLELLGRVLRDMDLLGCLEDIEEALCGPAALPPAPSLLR

[11] = biological target: T5, TNFR1; experiment: biochemical; remark: listed apart in the source

| Substance | body weight change [2] | overall treatment effect in DSS-induced colitis ([2]; DSS, 400 μg/kg/d i.p.) | myeloperoxidase (MPO) activity in colon tissue ([2]; DSS, 400 μg/kg/d i.p.) | serum IFN-γ content ([2]; DSS, 400 μg/kg/d i.p.) | serum IL-6 content ([2]; DSS, 400 μg/kg/d i.p.) | serum IL-10 (anti-inflammatory factor) ([2]; DSS, 400 μg/kg/d i.p.) | serum IL-β content ([2]; DSS, 400 μg/kg/d i.p.) | serum TNF-α content ([2]; DSS, 400 μg/kg/d i.p.) | colonic lesions, HE staining ([2]; DSS, 400 μg/kg/d i.p.) | TNF-α expressed in colon tissue sections ([2]; DSS, 400 μg/kg/d i.p.) | colon length ([2]; DSS, 400 μg/kg/d i.p.) | overall treatment effect in oxazolone-induced colitis ([3]; 400 ug/kg/d i.p.) | body weight change [3] | colon length ([3]; 400 ug/kg/d i.p.) | MPO activity in colon tissue ([3]; 400 ug/kg/d i.p.) | serum IFN-γ level ([3]; 400 ug/kg/d i.p.) | serum IL-1β level ([3]; 400 ug/kg/d i.p.) | serum IL-6 level ([3]; 400 ug/kg/d i.p.) | serum IL-10 (anti-inflammatory factor) ([3]; 400 ug/kg/d i.p.) | serum TNF-α level ([3]; 400 ug/kg/d i.p.) | also measured |
| --- | --- | --- | --- | --- | --- | --- | --- | --- | --- | --- | --- | --- | --- | --- | --- | --- | --- | --- | --- | --- | --- |
| PEG-SN10: Hydrostatin-SN10 modified with mPEG2000; carboxyl group of mPEG2000 covalently linked to free amino group of N-terminal aspartic acid (mPEG2000-DEQHLETELH) | effective in inhibiting the weight loss | effective in treating DSS-induced colitis animal models | significantly reduce MPO activity | significantly decreased | significantly decreased | significantly increased | significantly decreased | significantly decreased | effectively inhibit colonic lesions caused by DSS | alleviate the degree of inflammation in the colon tissue | significantly improved the colon length | effective in the treatment of oxazolone-induced mouse colitis animal model | significantly reduced the weight loss | significantly improved colon length | effective in inhibiting the increase in MPO activity | significantly reduced | significantly reduced | significantly reduced | significantly increased | significantly reduced | plasma half-life compared with Hydrostatin-SN10 ([1]; after PEG modification): longer plasma half-life; pathological changes in colon tissue, HE staining ([3]; 400 ug/kg/d i.p.): significantly attenuated pathological changes in mouse colon tissue; expression of TNF-α in colon tissue sections ([3]; 400 ug/kg/d i.p.): significantly reduced |
| H-DEQHLETELH [Hydrostatin-SN10] | effective in inhibiting the weight loss | effective in treating DSS-induced colitis animal models | significantly reduce MPO activity | significantly decreased | significantly decreased | significantly increased | significantly decreased | significantly decreased | effectively inhibit colonic lesions caused by DSS | alleviate the degree of inflammation in the colon tissue | significantly improved the colon length | effective in the treatment of oxazolone-induced mouse colitis animal model | significantly reduced the weight loss | significantly improved colon length | effective in inhibiting the increase in MPO activity | significantly reduced | significantly reduced | significantly reduced | significantly increased | significantly reduced | binding to TNF-α [4]: does not bind; binding to TNF-α ([4]; listed as SN10): no binding; competitive inhibition of the interaction of TNFR1 with TNF-α [5]: competitively inhibits; binding to TNF-α [6]: not binding; binding to TNF-α ([6]; listed as SN10): no binding; binding to TNFR2 ([7]; fluorescently labeled TNFR2): not binding; binding to TNFR2 ([7]; fluorescently labeled TNFR2, listed as SN10): no binding; competitive inhibition of the interaction of TNFR1 and TNF-α [8]: competitively inhibit; half-life ([1]; rat, plasma, ELISA): 2.18 h; disease activity index (DAI) score ([2]; DSS, 400 μg/kg/d i.p., FIG. 6): effectively alleviate the symptoms of diarrhea and blood in the stool; spleen index ([2]; DSS, 400 μg/kg/d i.p., FIG. 8): effectively inhibit spleen changes caused by colitis; disease activity index (DAI) score ([3]; 400 ug/kg/d i.p., FIG. 14): effectively alleviate the symptoms of diarrhea and blood in the stool; spleen index ([3]; 400 ug/kg/d i.p., FIG. 16): significantly down-regulate the mouse spleen index; pathological changes in colon tissue, HE staining ([3]; 400 ug/kg/d i.p.): significantly attenuated pathological changes in mouse colon tissue; expression of TNF-α in colon tissue sections ([3]; 400 ug/kg/d i.p.): significantly reduced; isoelectric point [9]: 4.39; Kd [10]: ~2.8 µM; Kd [11]: 2.8 µM |

Reference: patent publication US20200277355A1 (GUILIN EIGHT PLUS ONE PHARMACEUTICAL CO., LTD., priority 2017, published 2020)
